Measured values taken from publication PMC12627007, “HIV nucleocapsid proteins as targets for novel 1,2-benzisothiazol-3(2H)-one benzenesulfonamides: synthesis and antiretroviral activity” (Frontiers in Microbiology, 2025).
Like-named read-outs stand apart in the source and are kept apart here.

How the values were obtained:
cell-free HIV-1 = assay: Virucidal activity against cell-free HIV-1 (Reed-Muench titration); format: cell-based; conditions: 0 °C; compound 6 80 μM, AMPH-B 100 μM
Procedure: (§1) Cell-free, high-titre HIV-1 and HIV-2 stock solutions were exposed to the test compounds for 2 h at 0 °C or 37 °C. At the end of incubation, residual infectivity was determined using the Reed–Muench end-point titration method, as described below.
(§2) Titration was performed in C8166 cells using the standard limiting dilution method (dilution 1:2, four replica wells/dilution) in 96-well plates.

HIV-1 IIIB strain = assay: microbe, parasite or virus in culture; format: cell-based; conditions: for EC50: Human immunodeficiency virus 1, IIIB; for Selectivity Index (SI = CC50/EC50) HIV-1: IIIB strain, in round brackets
Procedure: (§3) HIV-1IIIB and HIV-2 CBL-20 strains were obtained from the supernatants of persistently infected H9/IIIB and CEM cells, respectively. HIV-1 and HIV-2 stock solutions had titres of 4.5 × 10^7 and 1.4 × 10^6 50% cell culture infectious doses (CCID50)/ml, respectively. […] The K103R + V179D + P225H mutant (EFVR) was derived from an IIIB strain passaged in MT-4 cells in the presence of Efavirenz (up to 2 μM). N119, A17 and EFV^R stock solutions had titres of 1.2 × 10^8, 2.1 × 10^7, and 4.0 × 10^7 CCID50/ml, respectively.
(§4) The activity of the test compounds against the replication of HIV-1 wt and mutant strains (N119, A17, EFV^R, AZT^R, MDR, SAQ^R) and HIV-2 wt in acutely infected cells was based on the inhibition of virus-induced cytopathogenicity in MT-4 and C8166 cells, respectively. Briefly, 50 μL of culture medium containing 1 × 10^4 cells was added to each well of flat-bottom microtitre trays containing 50 μL of culture medium with or without different serial concentrations of test compounds. Then, 20 μL of an HIV suspension (containing the appropriate amount of CCID50 required to cause complete cytopathogenicity on day 4, final multiplicity of infection [m.o.i.] 0.01) was added.

HIV-2 CBL-20 strain = assay: Inhibition of HIV-2-induced cytopathogenicity in C8166 cells (MTT); format: cell-based; conditions: for Selectivity Index (SI = CC50/EC50) HIV-2: in round brackets
Procedure: as §3, §4

cell-free HIV-2 = assay: Virucidal activity against cell-free HIV-2 (Reed-Muench titration); format: cell-based; conditions: 0 °C; compound 6 80 μM, AMPH-B 100 μM
Procedure: as §1, §2

[1] = test system: HIV-1 AZTR (67N, 70R, 215F, 219Q); assay: Inhibition of virus-induced cytopathogenicity in MT-4 cells, NRTI-resistant mutant AZTR; format: cell-based; conditions: for EC50: Human immunodeficiency virus 1, MT4, read-out: EC50 AZTR; for Selectivity Index (SI = CC50/EC50) AZTR: in round brackets
Procedure: as §3, §4

[2] = test system: HIV-1 SAQR (L10F, G48V, L90M); assay: Inhibition of virus-induced cytopathogenicity in MT-4 cells, PRI-resistant mutant SAQR; format: cell-based; conditions: for EC50: Human immunodeficiency virus 1, MT4, read-out: EC50 SAQR; for Selectivity Index (SI = CC50/EC50) SAQR: in round brackets
Procedure: as §3, §4

[3] = test system: HIV-1 EFVR (K103R + V179D + P225H); assay: Inhibition of virus-induced cytopathogenicity in MT-4 cells, NNRTI-resistant mutant EFVR; format: cell-based; conditions: for EC50: Human immunodeficiency virus 1, MT4, read-out: EC50 EFVR; for Selectivity Index (SI = CC50/EC50) EFVR: in round brackets
Procedure: as §3, §4

[4] = test system: HIV-1 A17 (K103N + Y181C); assay: Inhibition of virus-induced cytopathogenicity in MT-4 cells, NNRTI-resistant mutant A17; format: cell-based; conditions: for EC50: Human immunodeficiency virus 1, MT4, read-out: EC50 A17; for Selectivity Index (SI = CC50/EC50) A17: in round brackets
Procedure: as §3, §4

HIV-1 N119 (Y181C) = assay: Inhibition of virus-induced cytopathogenicity in MT-4 cells, NNRTI-resistant mutant N119; format: cell-based; conditions: for EC50: Human immunodeficiency virus 1, MT4, read-out: EC50 N119; for Selectivity Index (SI = CC50/EC50) N119: in round brackets
Procedure: as §3, §4

[5] = Cytotoxicity in mock-infected MT-4 cells (MTT method); format: cell-based; conditions: human
Procedure: as §4, with “added. After incubation at 37 °C, cell viability was determined using the […] (MTT) method ([Pauwels et al., 1988]). The cytotoxicity of the test compounds was evaluated in parallel with their antiviral activity through the viability of mock-infected, treated cells, as monitored by the MTT method and described elsewhere ([Morellet et al., 1994]).” for “added.”

[6] = test system: HIV-1 MDR (74V, 41L, 106A, 215Y); assay: Inhibition of virus-induced cytopathogenicity in MT-4 cells, NRTI-resistant mutant MDR; format: cell-based; conditions: for EC50: Human immunodeficiency virus 1, MT4, read-out: EC50 MDR; for Selectivity Index (SI = CC50/EC50) MDR: in round brackets
Procedure: as §3, §4

[7] = microbe, parasite or virus in culture; format: cell-based, HIV-1; conditions: all tested strains (HIV-1 wt, mutants, HIV-2)
Procedure: as §3, §4

[8] = target: T1, HIV-1 reverse transcriptase (Human immunodeficiency virus type 1 group M subtype B, UniProt P04585); assay: Reverse transcriptase enzyme assay; format: biochemical; conditions: for Inhibition of recombinant HIV-1 RT: at concentrations of 30 μM
T1 construct: recombinant HIV-1 reverse transcriptase

[9] = target: T2, HIV-1 recombinant integrase (rIN) (Human immunodeficiency virus type 1 group M subtype B, UniProt P04585); assay: Integrase (rIN) enzyme assays: 3'-processing and strand transfer; format: biochemical; conditions: for Inhibition of recombinant HIV-1 IN: at concentrations of 30 μM
T2 construct: HIV-1 recombinant integrase (rIN); made in house
Description: ^aCompound concentration (µM) required to reduce the amount of 3’-end-labeled duplex of 21/19mers substrates, in 3’-processing and strand-transfer reactions catalyzed by the recombinant HIV-1 integrase, by 50%. Data represent mean values for three independent determinations.

[10] = Human immunodeficiency virus 2, C8166, read-out: EC50 HIV-2
[11] = read-out: IC50 Strand-transfer, recombinant HIV-1 integrase

Compound | EC50 [1] | EC50 [2] | EC50 (HIV-1 IIIB strain; MT4, read-out: EC50 HIV-1) | EC50 [3] | EC50 (HIV-2 CBL-20 strain; [10]) | EC50 [4] | EC50 (HIV-1 N119 (Y181C)) | EC50 [6] | Selectivity Index (SI = CC50/EC50) AZTR [1] | Selectivity Index (SI = CC50/EC50) SAQR [2] | Selectivity Index (SI = CC50/EC50) HIV-1 (HIV-1 IIIB strain) | Selectivity Index (SI) against all tested strains [7] | Selectivity Index (SI = CC50/EC50) EFVR [3] | Selectivity Index (SI = CC50/EC50) HIV-2 (HIV-2 CBL-20 strain) | Selectivity Index (SI = CC50/EC50) A17 [4] | Selectivity Index (SI = CC50/EC50) N119 (HIV-1 N119 (Y181C)) | CC50 at 4 days [5] | Selectivity Index (SI = CC50/EC50) MDR [6] | also measured
C[C@@H]1[C@H](O)[C@@H](C)/C=C/C=C/C=C/C=C/C=C/C=C/C=C/[C@H](O[C@@H]2O[C@H](C)[C@@H](O)[C@H](N)[C@@H]2O)C[C@@H]2O[C@](O)(C[C@@H](O)C[C@@H](O)[C@H](O)CC[C@@H](O)C[C@@H](O)CC(=O)O[C@H]1C)C[C@H](O)[C@H]2C(=O)O [AMPH-B, Amphotericin B, reference compound] | – | – | – | – | – | – | – | – | – | – | – | – | – | – | – | – | – | – | Effect on HIV-1 infectivity, incubation at 0 °C (cell-free HIV-1): still able to reduce it by a high percentage; EC50 (HIV-1 IIIB strain; MT4, read-out: EC50 HIV-1 (Table 2)): 6 ± 3 µM; EC50 (HIV-2 CBL-20 strain; Human immunodeficiency virus 2, C8166, read-out: EC50 HIV-2 (Table 2)): 2 ± 0.3 µM; Effect on HIV-2 infectivity, incubation at 0 °C (cell-free HIV-2): more than 1 log10
Cc1cn([C@H]2C[C@H](N=[N+]=[N-])[C@@H](CO)O2)c(=O)[nH]c1=O [AZT, azidothymidine, reference compound] | 0.2 ± 0.05 µM | 0.01 ± 0.005 µM | 0.01 ± 0.003 µM | 0.01 ± 0.002 µM | 0.008 ± 0.001 µM | 0.01 ± 0.003 µM | 0.02 ± 0.001 µM | 0.2 ± 0.07 µM | – | – | – | – | – | – | – | – | – | – | CC50 ([5]; MT-4, MTT method): ≥ 20 µM
Cc1ccc(S(=O)(=O)Nn2sc3ccccc3c2=O)cc1 [Compound 7, 4-Methyl-N-(3-oxo-1,2-benzisothiazol-2(3H)-yl)benzenesulfonamide] | 8 ± 1 µM | 9 ± 2 µM | 10 ± 3 µM | 8 ± 3 µM | 4 ± 0.7 µM | 8 ± 1 µM | 5 ± 0.1 µM | 6 ± 0.7 µM | 4 | 3 | 3.5 | around 10 | 4 | 8 | 4 | 7 | 35 ± 1 µM | 5 | IC50 [8]: > 30 µM; Inhibition of recombinant HIV-1 RT [8]: none of the benzenesulfonamides were active; IC50 [9]: > 30 µM; Inhibition of recombinant HIV-1 IN [9]: none of the benzenesulfonamides were active; IC50 [9, 11]: > 30 µM
Cc1ccc2sn(NS(=O)(=O)c3ccccc3Cl)c(=O)c2c1 [Compound 17, 2-Chloro-N-(5-methyl-3-oxo-1,2-benzisothiazol-2(3H)-yl)benzenesulfonamide] | 4 ± 0.7 µM | 6 ± 1 µM | 2 ± 1 µM | 5 ± 2 µM | 4 ± 0.5 µM | 9 ± 3 µM | 5 ± 0.7 µM | 3 ± 0.5 µM | 18 | 12 | 36 | around 10 | 14 | 18 | 8 | 14 | 73 ± 0.1 µM | 23 | –
O=c1c2ccc(Cl)cc2sn1NS(=O)(=O)c1ccccc1Cl [Compound 19, 2-Chloro-N-(6-chloro-3-oxo-1,2-benzisothiazol-2(3H)-yl)benzenesulfonamide] | 14 ± 1 µM | 21 ± 1 µM | 11 ± 3 µM | 7 ± 2 µM | 12 ± 2 µM | ≥ 33 µM | 14 ± 3 µM | 11 ± 2 µM | 5 | 2 | 5 | around 10 | 8 | 5 | – | 4 | 60 ± 4 µM | 5 | IC50 [8]: > 30 µM; Inhibition of recombinant HIV-1 RT [8]: none of the benzenesulfonamides were active; IC50 [9]: > 30 µM; Inhibition of recombinant HIV-1 IN [9]: none of the benzenesulfonamides were active; IC50 [9, 11]: > 30 µM
O=c1c2ccccc2sn1N(S(=O)(=O)c1ccc([N+](=O)[O-])cc1)S(=O)(=O)c1ccc([N+](=O)[O-])cc1 [Compound 22, 4-Nitro-N-[(4-nitrophenyl)sulfonyl]-N-(3-oxo-1,2-benzisothiazol-2(3H)-yl)benzenesulfonamide] | 24 µM | 23 µM | 21 µM | 21 µM | – | 20 µM | 20 µM | 25 µM | > 4 | > 4 | > 4 | – | > 4 | – | > 5 | > 5 | – | > 4 | CC50 at 4 days ([5]; MT-4, MTT method): > 100 µM
O=c1c2ccccc2sn1N(S(=O)(=O)c1ccc(F)cc1)S(=O)(=O)c1ccc(F)cc1 [Compound 23, 4-Fluoro-N-[(4-fluorolphenyl)sulfonyl]-N-(3-oxo-1,2-benzisothiazol-2(3H)-yl)benzenesulfonamide] | 22 µM | 22 µM | 26 ± 2 µM | 25 µM | – | 24 µM | 23 ± 1 µM | 25 µM | – | – | – | – | – | – | – | – | 36 ± 2.5 µM | – | –
O=c1c2ccccc2sn1N(S(=O)(=O)c1ccc(Cl)cc1)S(=O)(=O)c1ccc(Cl)cc1 [Compound 24, 4-Chloro-N-[(4-chlorophenyl)sulfonyl]-N-(3-oxo-1,2-benzisothiazol-2(3H)-yl)benzenesulfonamide] | 71 µM | 63 µM | 71 ± 6 µM | 65 µM | – | 56 µM | 29 ± 1 µM | 64 µM | – | – | – | – | – | – | – | – | > 100 µM | – | –
CC(C)(C)NC(=O)[C@@H]1C[C@@H]2CCCC[C@@H]2CN1C[C@@H](O)[C@H](Cc1ccccc1)NC(=O)[C@H](CC(N)=O)NC(=O)c1ccc2ccccc2n1 [SAQ, saquinavir, reference compound] | 0.01 ± 0.005 µM | 0.5 ± 0.1 µM | 0.01 ± 0.001 µM | 0.01 ± 0.005 µM | – | 0.01 ± 0.002 µM | 0.02 ± 0.001 µM | 0.02 ± 0.007 µM | – | – | – | – | – | – | – | – | – | – | CC50 ([5]; MT-4, MTT method): ≥ 20 µM
